Results published in ChEMBL document CHEMBL5137098, “Discovery of Substituted Di(pyridin-2-yl)-1,2,4-thiadiazol-5-amines as Novel Macrofilaricidal Compounds for the Treatment of Human Filarial Infections” (J Med Chem, 2022).

What was measured:
TK6 = test: Cytotoxicity in human TK6 cells in presence of Aroclor 1254-induced rat liver S9 fraction by micronucleus test; format: toxicity, cell-based
[1] = Metabolic stability in rat liver S9 fraction assessed as compound remaining at 3 uM measured at 60 mins by LC-MS/MS analysis; format: ADME, subcellular; conditions: read-out: Stability
[2] = Metabolic stability in human liver S9 fraction assessed as compound remaining at 3 uM measured at 60 mins by LC-MS/MS analysis; format: ADME, subcellular; conditions: read-out: Stability
[3] = Mutagenicity in Salmonella typhimurium TA98 in presence of liver S9 fraction by AMES test; format: toxicity, subcellular; conditions: salmonella enterica subsp. enterica serovar typhimurium
[4] = Mutagenicity in Salmonella typhimurium TA1535 in absence of liver S9 fraction by AMES test; format: toxicity; conditions: salmonella enterica subsp. enterica serovar typhimurium
[5] = Mutagenicity in Salmonella typhimurium TA100 in presence of liver S9 fraction by AMES test; format: toxicity, subcellular; conditions: salmonella enterica subsp. enterica serovar typhimurium
[6] = Mutagenicity in Escherichia coli WP2 uvrA in absence of liver S9 fraction by AMES test; format: toxicity
[7] = Mutagenicity in Salmonella typhimurium TA1535 in presence of liver S9 fraction by AMES test; format: toxicity, subcellular; conditions: salmonella enterica subsp. enterica serovar typhimurium
[8] = Mutagenicity in Salmonella typhimurium TA100 in absence of liver S9 fraction by AMES test; format: toxicity; conditions: salmonella enterica subsp. enterica serovar typhimurium
[9] = Mutagenicity in Salmonella typhimurium TA97 in absence of liver S9 fraction by AMES test; format: toxicity; conditions: salmonella enterica subsp. enterica serovar typhimurium
Litomosoides sigmodontis = test: Antiparasitic activity against Litomosoides sigmodontis infected in Meriones assessed as reduction in worm burden at 15 mg/kg, sc BID administered for 7 days; format: functional; design: scale not given: the % may be the effect or the level left; conditions: time 7 day
[10] = Mutagenicity in Salmonella typhimurium TA97 in presence of liver S9 fraction by AMES test; format: toxicity, subcellular; conditions: salmonella enterica subsp. enterica serovar typhimurium
[11] = Mutagenicity in Salmonella typhimurium TA98 in absence of liver S9 fraction by AMES test; format: toxicity; conditions: salmonella enterica subsp. enterica serovar typhimurium
[12] = Mutagenicity in Escherichia coli WP2 uvrA in presence of liver S9 fraction by AMES test; format: toxicity, subcellular

remaining at 1 h, 3 µM [1] | remaining at 1 h, 3 µM [2] | Compound | Activity (TK6) | Activity [3] | Activity [4] | Activity [5] | Activity [6] | Activity [7] | Activity [8] | Activity [9] | Activity (Litomosoides sigmodontis) | Activity [10] | Activity [11] | Activity [12]
100% | 94% | Cc1nccnc1Nc1nc(-c2ccc(OC(C)C)cn2)ns1 | Non-Toxic | – | – | – | – | – | – | – | – | – | – | –
– | – | CC(=O)N(C)c1cccnc1Nc1nc(-c2ccc(OC(C)C)cn2)ns1 | – | Non-Toxic | Non-Toxic | Non-Toxic | Non-Toxic | Non-Toxic | Non-Toxic | Non-Toxic | 58.9% | Non-Toxic | Non-Toxic | Non-Toxic
